Test results taken from ChEMBL document CHEMBL4825686, “HTS-based discovery and optimization of novel positive allosteric modulators of the α7 nicotinic acetylcholine receptor” (Eur J Med Chem, 2021).
Converted amounts (≈) assume the structure as drawn. The source made the active and inactive calls. The rule behind the calls is not given here.

Columns and labels:
[1] = Mutagenicity in Salmonella typhimurium TA1535 in absence of rat liver S9 fraction by AMES test; type: toxicity; settings: salmonella enterica subsp. enterica serovar typhimurium
[2] = Metabolic stability in Wistar rat liver microsomes assessed as intrinsic clearance at 1 uM measured per mg protein upto 40 mins; type: ADME, Microsome; settings: read-out: CLH
[3] = Mutagenicity in Escherichia coli WP2 uvrA in presence of rat liver S9 fraction by AMES test; type: toxicity, subcellular
[4] = Metabolic stability in NMRI mouse liver microsomes assessed as intrinsic clearance at 1 uM measured per mg protein upto 40 mins; type: ADME, Microsome; settings: read-out: CLH
[5] = Mutagenicity in Salmonella typhimurium TA100 in presence of rat liver S9 fraction by AMES test; type: toxicity, subcellular; settings: salmonella enterica subsp. enterica serovar typhimurium
[6] = Mutagenicity in Salmonella typhimurium TA1535 in presence of rat liver S9 fraction by AMES test; type: toxicity, subcellular; settings: salmonella enterica subsp. enterica serovar typhimurium
[7] = molecular target: T1, Neuronal acetylcholine receptor subunit alpha-7 (Homo sapiens, UniProt P36544); experiment: Positive allosteric modulator activity at human alpha7 nAChR expressed in Flp-In-HEK293 cells co-expressing RIC-3 assessed as potentiation of PNU282987-induced calcium influx at 10 uM measured after 10 mins by FLIPR assay; type: cell-based
[8] = Mutagenicity in Salmonella typhimurium TA1537 in presence of rat liver S9 fraction by AMES test; type: toxicity, subcellular; settings: salmonella enterica subsp. enterica serovar typhimurium
[9] = Mutagenicity in Salmonella typhimurium TA98 in presence of rat liver S9 fraction by AMES test; type: toxicity, subcellular; settings: salmonella enterica subsp. enterica serovar typhimurium
[10] = Kinetic solubility of compound; type: physicochemical; settings: read-out: Kinetic_solubility
[11] = Mutagenicity in Salmonella typhimurium TA100 in absence of rat liver S9 fraction by AMES test; type: toxicity; settings: salmonella enterica subsp. enterica serovar typhimurium
[12] = Mutagenicity in Escherichia coli WP2 uvrA in absence of rat liver S9 fraction by AMES test; type: toxicity
[13] = Metabolic stability in human liver microsomes assessed as intrinsic clearance at 1 uM measured per mg protein upto 40 mins; type: ADME, Microsome; settings: read-out: CLH
[14] = Mutagenicity in Salmonella typhimurium TA98 in absence of rat liver S9 fraction by AMES test; type: toxicity; settings: salmonella enterica subsp. enterica serovar typhimurium
[15] = Mutagenicity in Salmonella typhimurium TA1537 in absence of rat liver S9 fraction by AMES test; type: toxicity; settings: salmonella enterica subsp. enterica serovar typhimurium
[16] = Drug uptake in NMRI mouse brain at 1 mg/kg, ip measured after 1 hr by HPLC-MS/MS analysis; type: ADME, organism-based; settings: read-out: Ct
[17] = Ratio of drug level in NMRI mouse brain to plasma at 1 mg/kg, ip measured after 1 hr by HPLC-MS/MS analysis; type: ADME, organism-based; settings: read-out: BPR
[18] = Plasma concentration in NMRI mouse at 10 mg/kg, ip measured after 1 hr by HPLC-MS/MS analysis; type: ADME, organism-based
Mus musculus [19] = experiment: Cognitive enhancing effect in scopolamine-induced amnesia NMRI mouse model assessed as increase in recognition index at 1 to 10 mg/kg, ip administered 30 mins prior to scopolamine injection by Y-maze test; type: functional, organism-based; settings: dose 1-10 mg/kg
[20] = Ratio of drug level in NMRI mouse brain to plasma at 10 mg/kg, ip measured after 1 hr by HPLC-MS/MS analysis; type: ADME, organism-based; settings: read-out: BPR
[21] = molecular target: T1, Neuronal acetylcholine receptor subunit alpha-7; experiment: Positive allosteric modulator activity at human alpha7 nAChR expressed in Flp-In-HEK293 cells co-expressing RIC-3 assessed as potentiation of PNU282987-induced calcium influx measured after 10 mins by FLIPR assay; type: cell-based, Flp-In-293; settings: read-out: EC50
[22] = Drug uptake in NMRI mouse brain at 3 mg/kg, ip measured after 1 hr by HPLC-MS/MS analysis; type: ADME, organism-based; settings: read-out: Ct
[23] = Ratio of drug level in NMRI mouse brain to plasma at 3 mg/kg, ip measured after 1 hr by HPLC-MS/MS analysis; type: ADME, organism-based; settings: read-out: BPR
[24] = Plasma concentration in NMRI mouse at 1 mg/kg, ip measured after 1 hr by HPLC-MS/MS analysis; type: ADME, organism-based
[25] = Plasma concentration in NMRI mouse at 3 mg/kg, ip measured after 1 hr by HPLC-MS/MS analysis; type: ADME, organism-based
[26] = Drug uptake in NMRI mouse brain at 10 mg/kg, ip measured after 1 hr by HPLC-MS/MS analysis; type: ADME, organism-based; settings: read-out: Ct
[27] = Ratio of drug level in Wistar rat brain to plasma at 3 mg/kg, ip measured after 35 mins by HPLC-MS/MS analysis; type: ADME, organism-based; settings: read-out: BPR
[28] = molecular target: Sodium-dependent dopamine transporter (Homo sapiens) (UniProt Q01959); experiment: Displacement of [125I]RTI55 from human recombinant DAT expressed in CHO-S cells at 10 uM incubated for 3 hrs by radiometric scintillation counting analysis; type: cell-based
[29] = Drug uptake in Wistar rat brain at 10 mg/kg, ip measured after 35 mins by HPLC-MS/MS analysis; type: ADME, organism-based; settings: read-out: Ct
[30] = Drug uptake in Wistar rat brain at 1 mg/kg, ip measured after 35 mins by HPLC-MS/MS analysis; type: ADME, organism-based; settings: read-out: Ct
[31] = Ratio of drug level in Wistar rat brain to plasma at 10 mg/kg, ip measured after 35 mins by HPLC-MS/MS analysis; type: ADME, organism-based; settings: read-out: BPR
[32] = Plasma concentration in Wistar rat at 3 mg/kg, ip measured after 35 mins by HPLC-MS/MS analysis; type: ADME, organism-based
[33] = Ratio of drug level in Wistar rat brain to plasma at 1 mg/kg, ip measured after 35 mins by HPLC-MS/MS analysis; type: ADME, organism-based; settings: read-out: BPR
Rattus norvegicus [34] = experiment: Cognitive enhancing effect in Hannover Wistar rat assessed as increase in novel object recognition index at 1 to 10 mg/kg, po administered 30 mins prior to recognition trail by novel object recognition test; type: functional, organism-based; settings: dose 1-10 mg/kg
[35] = Apparent permeability across apical to basolateral side in vinblastine-treated human Caco-2 cells expressing P-glycoprotein at 1 uM incubated for 120 mins by HPLC analysis; type: ADME
[36] = molecular target: 5-hydroxytryptamine receptor 2B (Homo sapiens) (UniProt P41595); experiment: Binding affinity to human recombinant 5-HT2B receptor assessed as displacement of radioligand at 10 uM by displacement binding assay
Mus musculus [37] = experiment: Cognitive enhancing effect in ip dosed scopolamine-induced amnesia NMRI mouse model assessed as increase in recognition index administered 30 mins prior to scopolamine injection by Y-maze test; type: functional; settings: 0.5 h, read-out: MED
Rattus norvegicus [38] = experiment: Reversal of scopolamine induced amnesia in Lister Hooded rat at 0.3 to 10 mg/kg, po administered 25 mins prior to scopolamine injection and measured after 20 mins by rodent touch screen visual discrimination test; type: functional, organism-based; settings: dose 0.3-10 mg/kg
[39] = molecular target: Sodium-dependent noradrenaline transporter (Homo sapiens) (UniProt P23975); experiment: Displacement of [125I]RTI55 from human recombinant NET expressed in MDCK cells at 10 uM incubated for 3 hrs by radiometric scintillation counting analysis; type: cell-based
[40] = Plasma concentration in Wistar rat at 10 mg/kg, ip measured after 35 mins by HPLC-MS/MS analysis; type: ADME, organism-based
[41] = Drug uptake in Wistar rat brain at 3 mg/kg, ip measured after 35 mins by HPLC-MS/MS analysis; type: ADME, organism-based; settings: read-out: Ct
[42] = Plasma concentration in Wistar rat at 1 mg/kg, ip measured after 35 mins by HPLC-MS/MS analysis; type: ADME, organism-based
Rattus norvegicus [43] = experiment: Cognitive enhancing effect in po dosed Hannover Wistar rat assessed as increase in novel object recognition index administered 30 mins prior to recognition trail by novel object recognition test; type: functional; settings: 0.5 h, read-out: MED
[44] = Flp-In-293, filed as positive allosteric modulator

T1 sequence (P36544 whole entry): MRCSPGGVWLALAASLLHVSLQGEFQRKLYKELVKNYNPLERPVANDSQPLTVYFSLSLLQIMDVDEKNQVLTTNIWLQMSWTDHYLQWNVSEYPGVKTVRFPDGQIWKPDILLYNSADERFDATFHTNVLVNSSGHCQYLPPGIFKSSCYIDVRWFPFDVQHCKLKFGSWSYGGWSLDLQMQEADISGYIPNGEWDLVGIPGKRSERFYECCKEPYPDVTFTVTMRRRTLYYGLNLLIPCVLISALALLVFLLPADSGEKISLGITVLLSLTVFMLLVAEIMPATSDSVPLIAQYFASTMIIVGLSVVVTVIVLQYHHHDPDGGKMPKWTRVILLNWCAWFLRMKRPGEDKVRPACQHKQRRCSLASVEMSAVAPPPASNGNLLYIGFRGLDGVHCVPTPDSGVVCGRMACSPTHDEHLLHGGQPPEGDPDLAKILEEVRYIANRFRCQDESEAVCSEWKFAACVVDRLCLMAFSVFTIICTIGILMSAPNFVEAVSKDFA
Sequence of 5-hydroxytryptamine receptor 2B (Homo sapiens) (P41595 whole entry): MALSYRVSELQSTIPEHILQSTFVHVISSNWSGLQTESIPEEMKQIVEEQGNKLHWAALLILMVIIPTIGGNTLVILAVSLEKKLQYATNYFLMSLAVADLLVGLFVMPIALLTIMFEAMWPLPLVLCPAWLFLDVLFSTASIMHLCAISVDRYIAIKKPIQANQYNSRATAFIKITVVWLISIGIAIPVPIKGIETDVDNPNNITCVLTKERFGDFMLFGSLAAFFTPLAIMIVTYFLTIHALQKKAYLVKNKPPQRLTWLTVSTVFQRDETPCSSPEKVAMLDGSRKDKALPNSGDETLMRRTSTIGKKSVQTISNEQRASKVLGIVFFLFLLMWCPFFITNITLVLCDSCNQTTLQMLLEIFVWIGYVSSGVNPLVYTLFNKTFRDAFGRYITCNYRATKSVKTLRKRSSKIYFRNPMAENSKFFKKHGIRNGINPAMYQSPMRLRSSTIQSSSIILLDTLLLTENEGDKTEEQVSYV
Sequence of Sodium-dependent dopamine transporter (Homo sapiens) (Q01959 whole entry): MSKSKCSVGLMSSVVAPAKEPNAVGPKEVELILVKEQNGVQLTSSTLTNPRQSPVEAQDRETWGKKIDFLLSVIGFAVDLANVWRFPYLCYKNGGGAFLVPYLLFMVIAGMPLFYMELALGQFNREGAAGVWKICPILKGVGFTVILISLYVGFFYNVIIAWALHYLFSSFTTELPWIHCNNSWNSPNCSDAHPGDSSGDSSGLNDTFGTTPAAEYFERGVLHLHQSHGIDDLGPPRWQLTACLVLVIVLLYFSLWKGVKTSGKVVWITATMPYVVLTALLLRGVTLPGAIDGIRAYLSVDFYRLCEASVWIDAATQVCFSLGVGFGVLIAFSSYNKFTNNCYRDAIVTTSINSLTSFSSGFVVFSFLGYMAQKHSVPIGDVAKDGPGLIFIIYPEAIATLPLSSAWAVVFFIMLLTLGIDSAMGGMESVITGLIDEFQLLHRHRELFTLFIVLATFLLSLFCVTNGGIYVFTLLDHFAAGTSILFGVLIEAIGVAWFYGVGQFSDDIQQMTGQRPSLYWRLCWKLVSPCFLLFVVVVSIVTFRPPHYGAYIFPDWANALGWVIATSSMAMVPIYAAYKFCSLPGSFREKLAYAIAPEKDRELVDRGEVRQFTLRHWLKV
Sequence of Sodium-dependent noradrenaline transporter (Homo sapiens) (P23975 whole entry): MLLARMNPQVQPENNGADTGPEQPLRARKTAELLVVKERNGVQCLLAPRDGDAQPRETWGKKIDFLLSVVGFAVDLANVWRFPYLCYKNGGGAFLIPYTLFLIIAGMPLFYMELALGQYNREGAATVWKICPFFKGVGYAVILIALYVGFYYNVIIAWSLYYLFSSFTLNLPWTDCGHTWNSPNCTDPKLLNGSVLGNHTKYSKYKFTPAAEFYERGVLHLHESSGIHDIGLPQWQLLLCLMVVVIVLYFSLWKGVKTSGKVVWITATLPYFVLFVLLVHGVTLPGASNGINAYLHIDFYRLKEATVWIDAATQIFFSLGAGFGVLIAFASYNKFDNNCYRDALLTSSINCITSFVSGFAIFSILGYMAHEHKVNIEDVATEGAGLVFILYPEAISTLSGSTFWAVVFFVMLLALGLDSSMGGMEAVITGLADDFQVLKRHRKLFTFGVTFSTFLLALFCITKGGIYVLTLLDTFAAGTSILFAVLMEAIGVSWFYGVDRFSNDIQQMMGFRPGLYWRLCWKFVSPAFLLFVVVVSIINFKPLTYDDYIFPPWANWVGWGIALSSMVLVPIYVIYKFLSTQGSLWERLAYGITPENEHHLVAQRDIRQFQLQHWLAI

| SMILES | Activity [1] | microsomal CLint at 1 µM [2] | Activity [3] | microsomal CLint at 1 µM [4] | Activity [5] | Activity [6] | Activity [8] | Activity [9] | solubility kinetic [10] | Activity [11] | concentration at 1 h [16] | Kp at 1 h [17] | concentration at 1 h [18] | Activity (Mus musculus [19]) | Kp at 1 h [20] | concentration at 1 h [22] | Kp at 1 h [23] | concentration at 1 h [24] | concentration at 1 h [25] | concentration at 1 h [26] | other results |
| --- | --- | --- | --- | --- | --- | --- | --- | --- | --- | --- | --- | --- | --- | --- | --- | --- | --- | --- | --- | --- | --- |
| Cc1ccc(CN2CCN(C(=O)C(=O)Nc3ccc4[nH]c(C)c(C)c4c3)CC2)cc1 | Toxic | 56 µL/min/mg | Toxic | 151 µL/min/mg | Toxic | Toxic | Toxic | Toxic | 23 µM (≈ 9.3 µg/mL) | Toxic |  |  |  |  |  |  |  |  |  |  | Activity ([7]; Flp-In-293): 10%; Activity [12]: Toxic; microsomal CLint at 1 µM [13]: 13 µL/min/mg; Activity [14]: Toxic; Activity [15]: Toxic |
| Cc1ccc(OC2CN(C(=O)C(=O)Nc3ccc4c(ccn4C)c3)C2)cc1 |  |  |  |  |  |  |  |  |  |  |  |  |  |  |  |  |  |  |  |  | Activity [7, 44]: 47% |
| Cn1ccc2cc(NC(=O)C(=O)c3cnn(Cc4ccc(Cl)cc4)c3)ccc21 |  |  |  |  |  |  |  |  | 3 µM (≈ 1.18 µg/mL) |  |  |  |  |  |  |  |  |  |  |  | Activity [7, 44]: 52% |
| Cc1ccc(OC2CCN(C(=O)C(=O)Nc3ccc4c(ccn4C)c3)CC2)cc1 |  |  |  |  |  |  |  |  |  |  | 120 nM | 1.95 | 653 nM | Active | 1.96 | 297 nM | 1.74 | 63 nM | 170 nM | 1290 nM | EC50 [21]: 120 nM |
| Cc1ccc(Oc2ccc(C(=O)C(=O)Nc3ccc4c(ccn4C)c3)cn2)cc1 |  | 59 µL/min/mg |  | 33 µL/min/mg |  |  |  |  | 3 µM (≈ 1.16 µg/mL) |  | 108 nM | 1.05 | 1260 nM | Active | 1.53 | 492 nM | 1.17 | 104 nM | 417 nM | 1930 nM | EC50 [21]: 130 nM; microsomal CLint at 1 µM [13]: 51 µL/min/mg |
| O=C(NCc1ccc2[nH]ccc2c1)N1CC(COc2ccc(C(F)(F)F)cc2)C1 | Non-Toxic |  | Non-Toxic |  | Non-Toxic | Non-Toxic | Non-Toxic | Non-Toxic |  | Non-Toxic | 673 nM | 1.04 | 9470 nM | Active | 1.06 | 2210 nM | 0.99 | 647 nM | 2270 nM | 9920 nM | Kp at 35 min [27]: 1.4; inhibition [28]: > 50%; concentration at 35 min [29]: 11100 nM; concentration at 35 min [30]: 1010 nM; Kp at 35 min [31]: 1.38; concentration at 35 min [32]: 2220 nM; Kp at 35 min [33]: 1.43; Activity (Rattus norvegicus [34]): Active; Papp A→B at 2 h, 1 µM [35]: 55 ×10⁻⁶ cm/s; inhibition [36]: > 50%; minimal effective dose (Mus musculus [37]): 1 mg/kg; Activity (Rattus norvegicus [38]): Active; inhibition [39]: > 50%; concentration at 35 min [40]: 8020 nM; Activity [12]: Non-Toxic; concentration at 35 min [41]: 3110 nM; Activity [14]: Non-Toxic; concentration at 35 min [42]: 746 nM; Activity [15]: Non-Toxic; minimal effective dose (Rattus norvegicus [43]): 1 mg/kg |
